According to BindingDB's records for patent US9815850 (Denali Therapeutics Inc., 2017):

Target: T1, Receptor-interacting serine/threonine-protein kinase 1 (Homo sapiens, UniProt Q13546)
T1 sequence (Q13546 whole entry): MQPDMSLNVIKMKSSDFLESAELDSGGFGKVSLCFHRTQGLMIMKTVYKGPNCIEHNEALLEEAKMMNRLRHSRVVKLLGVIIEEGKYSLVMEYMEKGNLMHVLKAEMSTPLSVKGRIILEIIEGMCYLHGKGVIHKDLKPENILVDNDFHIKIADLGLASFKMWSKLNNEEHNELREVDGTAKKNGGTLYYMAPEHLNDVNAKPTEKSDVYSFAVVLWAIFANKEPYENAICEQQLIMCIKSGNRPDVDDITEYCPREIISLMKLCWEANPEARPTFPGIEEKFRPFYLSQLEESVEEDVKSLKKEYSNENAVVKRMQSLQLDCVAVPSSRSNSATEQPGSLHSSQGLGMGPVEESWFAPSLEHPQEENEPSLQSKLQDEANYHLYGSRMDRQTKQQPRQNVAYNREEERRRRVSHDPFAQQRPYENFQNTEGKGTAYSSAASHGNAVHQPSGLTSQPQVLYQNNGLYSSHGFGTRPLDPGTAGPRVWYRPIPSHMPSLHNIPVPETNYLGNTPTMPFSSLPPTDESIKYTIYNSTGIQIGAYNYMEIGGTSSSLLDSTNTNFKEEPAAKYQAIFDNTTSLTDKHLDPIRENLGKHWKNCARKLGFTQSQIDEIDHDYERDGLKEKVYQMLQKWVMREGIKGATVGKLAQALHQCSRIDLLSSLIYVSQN
Test: Fluorescent Polarization Binding (FP Binding) assay
From the text: For negative control the enzyme addition was replaced by assay buffer only.

In the case of `O=C(N[C@H]1COc2ccccc2-n2cnnc21)c1cc(Cc2ccccc2)[nH]n1` [US9815850, Compound 70A], the IC50 is reported as “in the range around 500 nM”.
